# From patent US11166942B2 (PRAXIS BIOTECH LLC, priority 2018, dated 2021)
# Key:
# [1] = tested on: CHO cells; experiment: Protein production by transient gene expression (GFP in CHO cells); format: cell-based, Chinese hamster; conditions: pIRES2-AcGFP1, 1 μM or 5 μM, 24 hours (FIGS. 12A, 12B)
# Procedure: CHO cells were maintained at 37° C. and 5% CO2 in DMEM supplemented with 10% fetal bovine serum (FBS), 2 mM L-glutamine, 100 U/ml penicillin, and 100 μg/ml streptomycin. After reaching 80% of confluence, cells were detached and seeded on 6-well plates in complete media and allowed to recover for 48 h. Cells were then washed three times with PBS and transfected with 1 μg of plasmid pIRES2-AcGFP1 (Clonetech 632435) using Lipofectamine LTX (Thermofisher Scientific) according to manufacturer instructions. Transfection media was supplemented with culture medium alone (vehicle) or 1 μM or 5 μM compound 58 in culture medium.
# (§1) After 24 hours treatment, culture media were removed and cells were lysed with SDS-PAGE lysis buffer. Lysates were transferred to 1.5 ml tubes and sonicated for 3 min. Total protein amount was quantified using BCA Protein Assay Kit (Pierce). Equal amount of proteins (30 μg) was loaded on SDS-PAGE gels. […]
# GFP (cell Signaling) and β-actin (Sigma-Aldrich) antibodies were used as primary antibodies. […] Quantification of protein bands was done by densitometry using ImageJ software.
# The levels were normalized to β-actin expression and percentage was calculated as the percent relative to the expression of GFP in untreated condition (Veh) which corresponds to 100%.
# [2] = tested on: fasted Balb/c mice, quadriceps; experiment: Fasting-induced muscle atrophy; format: in vivo, mouse; conditions: 10 mg/kg oral
# Procedure: Wild type eight-weeks-old male Balb/c mice obtained from the vivarium Fundación Ciencia & Vida Chile (Santiago, Chile) were used. Mice were housed in independent plastic cages in a room maintained at 25° C. with a 12-h:12-h light:dark cycle.
# Twenty-four hours before and during the 2 days of fasted procedures, animals were weighed and receive oral administration via feeding tubes (15 gauge) of vehicle (50% Polyethylene glycol 400 (Sigma-Aldrich P3265) in distilled water or 10 mg/kg of test compound formulated in vehicle solution.
# After 2 days of fasting the animals were weighed and sacrificed. Quadriceps were removed from both hindlimbs and weighed. Mice with feed and water ad libitum were used as control. […]
# Upon collection, muscles were immediately frozen in liquid nitrogen and then stored at −80° C. […] Protein concentration in supernatants was determined using BCA Protein Assay Kit (Pierce). […]
# Puromycin (12D10) (Merck Millipore) ATF4 (Abcam), Atrogin-1 (ECM Biosciences), MuRF-1 (Santa Cruz Biotechnology) and β-actin (Sigma-Aldrich) antibodies were used as primary antibodies. […] Quantification of protein bands was done by densitometry using ImageJ software. […]
# [3] = tested on: MEF cells; experiment: Frontotemporal dementia cellular model (progranulin knockdown in MEF cells); format: cell-based; conditions: PGRN siRNA mix, 1 μM or 5 μM, 48 hours (FIG. 13)
# Procedure: MEF cells were maintained at 37° C. and 5% CO2 in DMEM supplemented with 10% fetal bovine serum (FBS), 2 mM L-glutamine, 100 U/ml penicillin, and 100 μg/ml streptomycin. After reaching 80% of confluence, cells were detached and seeded on 6-well plates in complete media at a density of 3×10^5 cells/well and allowed to recover for 48 h. To perform a knockdown expression of the progranulin protein, cells were then washed three times with PBS and treated with small interference RNA (siRNA) mix, that target progranulin (PGRN) gene (Qiagen FlexiTube siRNA mix, Cat No 1027416), according to manufacturer instructions.
# Transfection media with siRNA mix was supplemented with OPTIMEM medium alone (GRN7) or 1 μM or 5 μM compound 58 in OPTIMEM medium. Transfection media without siRNA mix (Veh) and cells cultured in OPTIMEM medium alone (Unt) were used as controls.
# as §1, with “48” for “24”
# PGRN (R&D Systems) and β-actin (Sigma-Aldrich) antibodies were used as primary antibodies. […] Quantification of protein bands was done by densitometry using ImageJ software. […]
smiles,measurement,setting,value
"O=C(NN1CCN(C[C@@H](O)COc2ccc(Cl)c(F)c2)CC1)c1ccc2cc(Cl)ccc2n1 [Compound 58, (R)-6-chloro-N-(4-(3-(4-chloro-3-fluorophenoxy)-2-hydroxypropyl)piperazin-1-yl)quinoline-2-carboxamide]",expression of GFP after transient transfection,[1],increased expression of GFP
same,ATF4 expression in quadriceps,[2]; vs vehicle-treated fasted mice (FIG. 8F),reduction
same,Atrogin-1 expression in quadriceps,[2]; vs vehicle-treated fasted mice (FIG. 8G),reduction
same,expression of PGRN (progranulin) in siRNA knockdown condition,[3],increased expression of progranulin
